Experimental data from patent publication US20060067923A1, “Preventing agent against drug-resistant bacterial infection” (priority 2004, published 2006).
In brackets after ≈: the same amount, converted by molar mass. Where two headings read alike, the source gives them in different places. Positions of bridges follow the written chain, without caps; N, C: chain ends. Non-standard residues stand in square brackets, D forms with d. Residues, ends and D or L forms follow the SMILES beside them. *: point of attachment. Ileψ(thiazoline)Cys = CC[C@H](C)[C@H](N)C1=N[C@H](C(=O)*)CS1; dOrn = NCCC[C@@H](N)C(=O)O

Test system: Enterococcus faecalis ATCC 51299 strain
Experiment: MIC levels of antibiotics against Vancomycin-resistant bacteria
Assay type: cell-based
Source text: Enterococcus faecalis ATCC 51299 strain was used as Vancomycin-resistant bacteria.

[1] = Enterococcus faecalis, ATCC51299, 16 h; read-out: MIC levels after 16 hours of culture
[2] = Enterococcus faecalis, ATCC51299, 24 h; read-out: MIC levels after 24 hours of culture

CC1(C)S[C@@H]2[C@H](NC(=O)[C@H](N)c3ccccc3)C(=O)N2[C@H]1C(=O)O [Ampicillin]
MIC [1]: 0.5 µg/mL (≈ 1.43 µM)
MIC [2]: 0.5 µg/mL (≈ 1.43 µM)

CC[C@H](C)[C@H](N)C1=N[C@H](C(=O)N[C@@H](CC(C)C)C(=O)N[C@H](CCC(=O)O)C(=O)N[C@H](C(=O)N[C@H]2CCCCNC(=O)[C@H](CC(N)=O)NC(=O)[C@@H](CC(=O)O)NC(=O)[C@H](Cc3cnc[nH]3)NC(=O)[C@@H](Cc3ccccc3)NC(=O)[C@H]([C@@H](C)CC)NC(=O)[C@@H](CCCN)NC2=O)[C@@H](C)CC)CS1 [Bacitracin] ({Ileψ(thiazoline)Cys}-L[dE]IK[dOrn]I[dF]H[dD]N; lactam 4-C)
MIC [1]: 64 µg/mL (≈ 45 µM)
MIC [2]: 128 µg/mL (≈ 90 µM)

O=C(N[C@H](CO)[C@H](O)c1ccc([N+](=O)[O-])cc1)C(Cl)Cl [Chloramphenicol]
MIC [1]: 64 µg/mL (≈ 198 µM)
MIC [2]: 128 µg/mL (≈ 396 µM)

CC[C@H]1OC(=O)[C@H](C)[C@@H](O[C@H]2C[C@@](C)(OC)[C@@H](O)[C@H](C)O2)[C@H](C)[C@@H](O[C@@H]2O[C@H](C)C[C@H](N(C)C)[C@H]2O)[C@](C)(O)C[C@@H](C)C(=O)[C@H](C)[C@@H](O)[C@]1(C)O [Erythromycin]
MIC [1]: 512 µg/mL (≈ 698 µM)
MIC [2]: > 512 µg/mL

Cc1onc(-c2ccccc2)c1C(=O)N[C@@H]1C(=O)N2[C@@H]1SC(C)(C)[C@@H]2C(=O)O [Oxacillin]
MIC [1]: 32 µg/mL (≈ 79.7 µM)
MIC [2]: 64 µg/mL (≈ 159 µM)

[H]/N=C(/N)N[C@H]1[C@H](O)[C@@H](O)[C@H](O[C@@H]2O[C@@H](C)[C@](O)(C=O)[C@H]2O[C@@H]2O[C@@H](CO)[C@H](O)[C@@H](O)[C@@H]2NC)[C@@H](N/C(N)=N\[H])[C@@H]1O [Streptomycin]
MIC [1]: > 512 µg/mL
MIC [2]: > 512 µg/mL

CN(C)[C@@H]1C(O)=C(C(N)=O)C(=O)[C@@]2(O)C(O)=C3C(=O)c4c(O)cccc4[C@@](C)(O)[C@H]3C[C@@H]12 [Tetracycline]
MIC [1]: 0.5 µg/mL (≈ 1.13 µM)
MIC [2]: 1 µg/mL (≈ 2.25 µM)

CN[C@H](CC(C)C)C(=O)N[C@H]1C(=O)N[C@@H](CC(N)=O)C(=O)N[C@H]2C(=O)N[C@H]3C(=O)N[C@H](C(=O)N[C@H](C(=O)O)c4cc(O)cc(O)c4-c4cc3ccc4O)[C@H](O)c3ccc(c(Cl)c3)Oc3cc2cc(c3O[C@@H]2O[C@H](CO)[C@@H](O)[C@H](O)[C@H]2O[C@H]2C[C@](C)(N)[C@H](O)[C@H](C)O2)Oc2ccc(cc2Cl)[C@H]1O [Vancomycin]
MIC (Enterococcus faecalis, ATCC51299, 16 h, read-out: MIC levels after 16 hours of culture): 16 µg/mL (≈ 11 µM)
MIC (Enterococcus faecalis, ATCC51299, 24 h, read-out: MIC levels after 24 hours of culture): 64 µg/mL (≈ 44.2 µM)

Gentamicin
MIC levels after 16 hours of culture (16 hours of culture): >512 µg/mL
MIC levels after 24 hours of culture (24 hours of culture): >512 µg/mL

Teicoplanin
MIC levels after 16 hours of culture (16 hours of culture): 1 µg/mL
MIC levels after 24 hours of culture (24 hours of culture): 1 µg/mL
